In patent US9309221B2, “1-substituted indazole derivative” (Dainippon Sumitomo Pharma Co., Ltd., priority 2012, dated 2016):

Each compound was assayed against T1, human α7 nAChR (Homo sapiens, UniProt P36544) (assay: Evaluation of PAM activity with human α7 nACh receptor stably expressing cells (aequorin luminescence, FDSS7000)). Conditions: ratio of RLU (Max-Min) of test wells to control wells, ACh at EC20.
T1 construct: expressed in transfected cells; host or cells: GH4C1 cells (rat pituitary, ATCC CCL-82.2)
T1 sequence (P36544 23-502): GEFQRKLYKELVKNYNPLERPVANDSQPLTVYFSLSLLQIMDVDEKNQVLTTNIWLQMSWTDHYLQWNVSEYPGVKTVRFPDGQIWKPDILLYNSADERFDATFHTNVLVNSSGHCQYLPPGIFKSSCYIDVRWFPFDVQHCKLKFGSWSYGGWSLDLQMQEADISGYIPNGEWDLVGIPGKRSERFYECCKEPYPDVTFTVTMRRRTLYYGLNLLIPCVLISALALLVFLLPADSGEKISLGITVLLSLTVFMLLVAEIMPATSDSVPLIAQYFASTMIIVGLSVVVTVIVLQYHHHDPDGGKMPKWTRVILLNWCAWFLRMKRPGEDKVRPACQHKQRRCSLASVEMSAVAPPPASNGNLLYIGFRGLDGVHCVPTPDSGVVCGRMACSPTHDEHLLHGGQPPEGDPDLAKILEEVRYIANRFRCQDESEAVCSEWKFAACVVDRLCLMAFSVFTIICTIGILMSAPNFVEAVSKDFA
Type: cell-based
Description: Evaluation of PAM Activity with Human α7 nACh Receptor Stably Expressing Cells
(1) Human α7 nAChR stably expressing cells
Human α7 nAChR stably expressing cells were generated and cultured. In detail, GH4C1 cells derived from rat pituitary (cat#CCL-82.2, ATCC, USA) were used as a host cell. PcDNA3.1Zeo vector containing a nucleotide sequence encoding a protein GenBank BAC81731 and pcDNA3.1 vector containing human α7 nAChR gene (cat#V790-20, invitrogen, Carlsbad, Calif., USA) were transfected to the cells to give aequorins and human α7 nAChR stably expressing cells respectively. The aequorins and human α7 nAChR stably expressing cells were screened with Zeocin (cat#R25001, invitrogen, Carlsbad, Calif., USA) and Geneticin (cat#10131-027, invitrogen, Carlsbad, Calif., USA) respectively.
The cells were cultured in F-10 Nutrient Mixture (Ham) medium (cat#11550-043, invitrogen, Carlsbad, Calif., USA) containing 2.5% fetal bovine serum (cat#2917354, ICN Biomedicals, Inc, USA), 15% inactivated horse serum (cat#26050-088, invitrogen, Carlsbad, Calif., USA), 1 μg/mL Geneticin, and 5 μg/mL Puromycin (cat#14861-84, invitrogen, Carlsbad, Calif., USA), in a Collagen Type 1-coated dish (cat#4030-010, iwaki, Tokyo, Japan). During the culture, the medium was replaced with fresh medium in every 2 to 3 days, and the cells were treated with TrypLE Express (cat#45604-021, invitrogen, Carlsbad, Calif., USA) to collect them in every 7 days. Thus, the cells were subcultured.
7 Days after subculturing, the cells were treated with TrypLE Express to collect them when they were about 80% confluent. The cells were suspended in a reaction medium containing Hanks (cat#14065-056, invitrogen, Carlsbad, Calif., USA)/20 mmol/L Hepes (cat#15630-080, invitrogen, Carlsbad, Calif., USA), Buffer (pH 7.4), F-10 Nutrient Mixture (Ham), and 0.1 mg/mL Geneticin, and the suspension was seeded in a 384-well plate (cat#781090, Greiner, Germany) at 20000 cells/25 μL per well.
On the next day after seeding, Viviren (cat#E649X, Promega, Madison, Wis., USA) was added to the medium so that the final concentration could be 4 μmol/L (15 μL/well). The plates were centrifuged and then placed in the dark for 4 hours at room temperature.
(2) Preparation of the Test Samples
Each of the test compounds was dissolved in DMSO to prepare each test sample at a concentration of 1000-fold the final concentration. To the solution was added Hanks/20 mM HEPES/0.2% BSA (cat#A3803, Sigma, St. Louis, Mo., USA), and the concentration was adjusted to 6-fold the final concentration.
(3) Evaluation of PAM Activity
FDSS7000 (Hamamatsu Photonics) was used to detect the luminescence signal evoked by α7 nAChR stimulation. The cells and a luminescent substrate were put on a plate, and the test sample was added thereto. […] After the addition of ACh, the luminescence signal (the central wavelength: 465 nm) was measured for 138 seconds to calculate RLU (Max-Min). The ratio of the RLU (Max-Min) of the test-compound-containing wells to that of the control wells was defined as PAM activity.

For `CCc1ccc2c(cnn2[C@H]2CC[C@@H](NC(=O)C3CCC(F)(F)CC3)CC2)c1` [Example 4, N-(cis-4-(5-ethyl-1H-indazol-1-yl)cyclohexyl)-4,4-difluorocyclohexanecarboxamide], the “PAM activity for α7 nAChR (in words)” value was “stronger PAM activity than others”.
`Cc1ccc2c(cnn2C2CCN(C(=O)NC3CCCCC3)CC2)c1` [Example 8, N-cyclohexyl-4-(5-methyl-1H-indazol-1-yl)piperidine-1-carboxamide] was tested, and the “PAM activity for α7 nAChR (in words)” value was “stronger PAM activity than others”.
With `Cc1ccc2c(cnn2C2CCN(C(=O)NC3CCC(F)(F)CC3)CC2)c1` [Example 13, N-(4,4-difluorocyclohexyl)-4-(5-methyl-1H-indazol-1-yl)piperidine-1-carboxamide] the “PAM activity for α7 nAChR (in words)” value was “stronger PAM activity than others”.
In the case of `CCOc1ccc2c(cnn2C2CCN(C(=O)NC3CCCC3)CC2)c1` [Example 17], the “PAM activity for α7 nAChR (in words)” value is reported as “stronger PAM activity than others”.
`CCOc1ccc2c(cnn2C2CCN(C(=O)NC3CCCCC3)CC2)c1` [Example 18, N-cyclohexyl-4-(5-ethoxy-1H-indazol-1-yl)piperidine-1-carboxamide] was tested, and the “PAM activity for α7 nAChR (in words)” value was “stronger PAM activity than others”.
With `CCc1ccc2c(cnn2C2CCN(C(=O)NC3CCCC3)CC2)c1` [Example 20] the “PAM activity for α7 nAChR (in words)” value was “stronger PAM activity than others”.
`CCc1ccc2c(cnn2C2CCN(C(=O)NC3CCC(F)(F)CC3)CC2)c1` [Example 23] was tested, and the “PAM activity for α7 nAChR (in words)” value was “stronger PAM activity than others”.
In the case of `COc1ccc2c(cnn2C2CCN(C(=O)NC3CCCCC3)CC2)c1` [Example 40], the “PAM activity for α7 nAChR (in words)” value is reported as “stronger PAM activity than others”.
In the case of `COc1ccc2c(cnn2C2CCN(C(=O)NC3CCC(F)(F)CC3)CC2)c1` [Example 41, N-(4,4-difluorocyclohexyl)-4-(5-methoxy-1H-indazol-1-yl)piperidine-1-carboxamide], the “PAM activity for α7 nAChR (in words)” value is reported as “stronger PAM activity than others”.
`CCc1ccc2c(cnn2[C@H]2CC[C@@H](NC(=O)C3CCCCC3)CC2)c1` [Example 119] was tested, and the “PAM activity for α7 nAChR (in words)” value was “stronger PAM activity than others”.
For `COCC1CCC(NC(=O)N2CCC(n3ncc4cc(C)ccc43)CC2)CC1` (centres unmarked) [Example 220], the “PAM activity for α7 nAChR (in words)” value was “stronger PAM activity than others”.

Same assay, conditions: test compound 10 μmol/L; ACh at EC20; ratio of RLU (Max-Min) of test-compound wells to control wells; human α7 nAChR expressing GH4C1 cells

In order of rising “α7PAM (%) @ 10 μmol/L” value:
1. COC1CCC(NC(=O)N2CCC(n3ncc4c(Br)cccc43)CC2)CC1 (centres unmarked) [Example 98]  89%
2. O=C(C1CCOCC1)N1CCC(n2ncc3cc(F)ccc32)CC1 [Example 104]  190%
3. CCOc1cccc2c1cnn2C1CCN(C(=O)N[C@H]2CC[C@@H](OC)CC2)CC1 [Example 184]  200%
4. CO[C@H]1CC[C@H](NC(=O)N2CCC(n3ncc4cc(-c5ccc(F)cc5)ccc43)CC2)CC1 [Example 155]  210%
5. O=C(Nc1ccc(C(F)(F)F)nc1)N1CCC(n2ncc3cc(C4CC4)ccc32)CC1 [Example 187]  220%
6. O=C(NC1CCC(F)(F)CC1)N1CCC(n2ncc3c(OC(F)F)cccc32)CC1 [Example 201]  370%
7. CCc1ccc2c(cnn2C2CCN(C(=O)C3CCOCC3)CC2)c1 [Example 111]  410%
8. CCc1ccc2c(cnn2[C@H]2CC[C@@H](NC(=O)[C@H]3CC[C@H](OC)CC3)CC2)c1 [Example 122]  410%
9. CCCc1ccc2c(cnn2C2CCN(C(=O)NC3CCC(OC)CC3)CC2)c1 (centres unmarked) [Example 76]  420%
10. Cc1ccc2c(cnn2C2CCN(C(=O)NC3CCC(OCC(F)(F)F)CC3)CC2)c1 (centres unmarked) [Example 83]  420%
11. COCCCc1ccc2c(cnn2C2CCN(C(=O)N[C@H]3CC[C@H](OC)CC3)CC2)c1 [Example 32]  430%
12. COCc1nn(C2CCN(C(=O)NC3CCCCC3)CC2)c2ccc(C)cc12 [Example 68]  430%
13. CO[C@H]1CC[C@H](NC(=O)N2CCC(n3ncc4c(C)c(C)ccc43)CC2)CC1 [Example 225]  480%
14. COCc1c(C)ccc2c1cnn2C1CCN(C(=O)NC2CCC(F)(F)CC2)CC1 [Example 213]  800%
15. COC(C)c1c(C)ccc2c1cnn2C1CCN(C(=O)NC2CCC(F)(F)CC2)CC1 (centres unmarked) [Example 232]  860%
16. CCCc1ccc2c(cnn2C2CCN(C(=O)NC3CCOCC3)CC2)c1 [Example 15, 4-(5-propyl-1H-indazol-1-yl)-N-(tetrahydro-2H-pyran-4-yl)piperidine-1-carboxamide]  1025%
17. Cc1ccc2c(cnn2C2CCN(C(=O)N[C@H]3CCCC3(F)F)CC2)c1 [Example 80, (S)—N-(2,2-difluorocyclopentyl)-4-(5-methyl-1H-indazol-1-yl)piperidine-1-carboxamide]  1033%
18. CO[C@H]1CCC[C@H](NC(=O)N2CCC(n3ncc4cc(C5CC5)ccc43)CC2)C1 [Example 211, 4-(5-cyclopropyl-1H-indazol-1-yl)-N-[(1S,3S)-3-methoxycyclohexyl]piperidine-1-carboxamide]  1034%
19. Cc1ccc2c(cnn2C2CCN(C(=O)N[C@H]3CCCCC3(F)F)CC2)c1 [Example 79, (S)—N-(2,2-difluorocyclohexyl)-4-(5-methyl-1H-indazol-1-yl)piperidine-1-carboxamide]  1064%
20. CCc1cccc2c1cnn2C1CCN(C(=O)NC2CCC(F)(F)CC2)CC1 [Example 64, N-(4,4-difluorocyclohexyl)-4-(4-ethyl-1H-indazol-1-yl)piperidine-1-carboxamide]  1133%
21. CC(C)Oc1ccc2c(cnn2C2CCN(C(=O)NC3CCCCC3)CC2)c1 [Example 48, N-cyclohexyl-4-(5-isopropoxy-1H-indazol-1-yl)piperidine-1-carboxamide]  1202%
22. CCc1ccc2c(cnn2[C@H]2CC[C@@H](NC(=O)NC3CCC(F)(F)CC3)CC2)c1 [Example 5, 1-(4,4-difluorocyclohexyl)-3-(cis-4-(5-ethyl-1H-indazol-1-yl)cyclohexyl)urea]  1368%
23. CCc1ccc2c(cnn2C2CCN(C(=O)NC3CCCOC3)CC2)c1 (centres unmarked) [Example 22, 4-(5-ethyl-1H-indazol-1-yl)-N-(tetrahydro-2H-pyran-3-yl)piperidine-1-carboxamide]  1425%
24. O=C(NC1CCC(F)(F)CC1)N1CCC(n2ncc3cc(OC4CC4)ccc32)CC1 [Example 249, 4-[5-(cyclopropoxy)-1H-indazol-1-yl]-N-(4,4-difluorocyclohexyl)piperidine-1-carboxamide]  1463%
25. CCO[C@H]1CC[C@H](NC(=O)N2CCC(n3ncc4cc(C)ccc43)CC2)CC1 [Example 90, N-(trans-4-ethoxycyclohexyl)-4-(5-methyl-1H-indazol-1-yl)piperidine-1-carboxamide]  1467%
26. Cc1ccc2c(c1)c(C)nn2C1CCN(C(=O)NC2CCC(F)(F)CC2)CC1 [Example 45, N-(4,4-difluorocyclohexyl)-4-(3,5-dimethyl-1H-indazol-1-yl)piperidine-1-carboxamide]  1576%
27. CCOc1ccc2c(cnn2C2CCN(C(=O)NC3CCC(F)(F)CC3)CC2)c1 [Example 27, N-(4,4-difluorocyclohexyl)-4-(5-ethoxy-1H-indazol-1-yl)piperidine-1-carboxamide]  1673%
28. CCc1ccc2c(cnn2C2CCN(C(=O)N[C@H]3CC[C@H](OC)CC3)CC2)c1 [Example 16, 4-(5-ethyl-1H-indazol-1-yl)-N-(trans-4-methoxycyclohexyl)piperidine-1-carboxamide]  1764%
29. CCc1ccc2c(cnn2[C@H]2CC[C@@H](NC(=O)C3CCC(F)(F)CC3)CC2)c1 [Example 4, N-(cis-4-(5-ethyl-1H-indazol-1-yl)cyclohexyl)-4,4-difluorocyclohexanecarboxamide]  2344%
30. Cc1ccc2c(cnn2C2CCN(C(=O)NC3CCCCC3)CC2)c1 [Example 8, N-cyclohexyl-4-(5-methyl-1H-indazol-1-yl)piperidine-1-carboxamide]  3053%
31. Cc1ccc2c(cnn2C2CCN(C(=O)NC3CCC(F)(F)CC3)CC2)c1 [Example 13, N-(4,4-difluorocyclohexyl)-4-(5-methyl-1H-indazol-1-yl)piperidine-1-carboxamide]  3399%
32. COc1ccc2c(cnn2C2CCN(C(=O)NC3CCC(F)(F)CC3)CC2)c1 [Example 41, N-(4,4-difluorocyclohexyl)-4-(5-methoxy-1H-indazol-1-yl)piperidine-1-carboxamide]  3749%
33. CCOc1ccc2c(cnn2C2CCN(C(=O)NC3CCCCC3)CC2)c1 [Example 18, N-cyclohexyl-4-(5-ethoxy-1H-indazol-1-yl)piperidine-1-carboxamide]  6779%
